Where “and” joins values, the source holds several entries; their conditions need not be identical. Equal values may be shown once. Blank lines part the entries; values can stand above or below the compound they belong to.
What was measured:
[1] = system: PAN-induced nephropathy in male Wistar rats; test: PAN-induced nephropathy rat model: proteinuria (urine protein:creatinine ratio); format: in vivo; conditions: Day 11, Pio 10 mg/kg or GQ-16 40 mg/kg daily oral gavage; for Urinary protein/creatinine ratio (UPCr): PAN 50 mg/kg IV
Description: (§1) This study was approved by the Institution Animal Care and Use Committee at Nationwide Children's Hospital, and their guidelines were followed when performing the experiments. Male Wistar rats were intravenously (IV) injected with puromycin aminonucleoside (PAN) (Sigma-Aldrich, St. Louis, Mo.) (50 mg/kg) on Day 0, which induced proteinuria, while control rats were given IV injections of saline. The rats were treated by oral gavage with Pioglitazone (Alfa Aesar, Tewksbury, Mass.) (10 mg/kg), GQ-16 (40 mg/kg), or a sham vehicle daily. GQ-16 and Pio dosages were determined based on previous studies, and GQ-16 was synthesized as previously described. Amato et al., The Journal of biological chemistry, 287: 28169-28179 (2012). Spot urine and serum were collected, and body weights were recorded throughout the study. […] Kerlin et al., Journal of the American Society of Nephrology: JASN, 26: 3009-3019 (2015). Kidneys were harvested, and the glomeruli were isolated using the sequential sieving method. Agrawal et al., Sci Rep, 6: 24392 (2016). Liver and white adipose tissue (WAT) epididymal fat were collected and flash frozen in liquid nitrogen.
Urine was collected from rats daily throughout the study and resolved using sodium dodecyl sulfate-polyacrylamide gel electrophoresis (SDS-PAGE) on an 8% gel and stained with Coomassie Brilliant Blue G-250 (Alfa Aesar, Tewksbury, MA) to visualize the albumin bands. Urine protein:creatinine ratio (UPCr) analyses were performed on urine samples from Day 11 at the time of peak proteinuria by Antech Diagnostics GLP (Morrisville, N.C.) to quantify the proteinuria values.

[2] = system: PAN-induced nephropathy in male Wistar rats; test: Serum chemistry (albumin, cholesterol) in PAN-nephrotic rats; format: in vivo, rat; conditions: for mean reduction of PAN-induced hypercholesterolemia / serum total cholesterol: Day 11; for serum albumin: Day 11, Pio 10 mg/kg or GQ-16 40 mg/kg daily
Description: as §1
Serum albumin and cholesterol were measured using the ACE® albumin and cholesterol reagents (Alfa Wasserman Diagnostic Technologies, LLC, West Caldwell, NJ) on the Vet Axcel (Alfa Wasserman Diagnostic Technologies, LLC, West Caldwell, NJ) at the Clinical Pathology Services, The Ohio State University's College of Veterinary Medicine, according to the manufacturer's instructions.

thrombin generation [3] = test: Thrombin generation assay (TGA) on platelet poor plasma of rats; format: in vivo, rat; conditions: PAN rats, plasma Day 11; for ETP (endogenous thrombin potential): Pio 10 mg/kg or GQ-16 40 mg/kg daily
Description: as §1
Thrombin generation assays (TGA) were performed using the Technothrombin® TGA Kit (Technoclone, Vienna, Austria) and Reagent C (RC) Low on PPP samples collected from the rats to determine various parameters such as the endogenous thrombin potential (ETP) and peak thrombin concentration. These assays were performed at least in duplicate on various rat groups (n=4-7/group). Briefly, PPP at 1:1 ratio with buffer was added to black well plates, and RC Low added. Then TGA substrate was added just before reading on a Spectramax M2 Fluorescent Plate Reader (Molecular Devices, San Jose, CA).

[4] = system: glomerular gene expression (Nphs1, Nrf2, Trpc6, Pparg); test: Glomerular gene expression by qRT-PCR; format: in vivo, rat; conditions: PAN rats
Description: as §1
(§2) Total RNA was extracted from isolated WAT epididymal fat and liver tissue samples using the RNeasy kit (Qiagen, Germantown, MD), following the manufacturer's instructions. Tissue samples in lysis buffer were placed in lock tubes with stainless-steel disruption beads and lysed at 30.0 Hz for 4 minutes using the Qiagen TissueLyser (Germantown, MD), followed by RNA isolation from the resulting lysate. Total RNA was isolated from glomeruli tissue samples using the mirVana™ Isolation Kit (Invitrogen, Carlsbad, CA), according to the manufacturer's instructions. Yield and purity were calculated for all isolated RNA samples by measuring the absorbance at 260, 280, and 230 nm and the ratios (both) with a spectrophotometer. 500 ng-1 μg of RNA was subjected to DNase (Invitrogen, Carlsbad, CA) digestion at room temperature for 15 minutes, which was then inactivated with 25 mM EDTA at 65° C. for 10 min. RNA was reverse transcribed using the iScript cDNA Synthesis Kit (Bio-Rad, Hercules, CA) according to the manufacturer's instructions. cDNA was used for quantitative reverse transcription-polymerase chain reaction (qRT-PCR) using gene specific and house-keeping primers. SYBR green (Bio-Rad, Hercules, Calif.) qRT-PCR was performed on the Applied Biosystems 7500 Real-Time PCR System. The PCR conditions were 95° C. for 10 minutes, 40× (95° C. for 15 seconds, 60° C. for 1 minute), followed by a melt curve to ensure specific products. The annealing temperature was at 60° C. for all genes except Pgc1a, Pparg, and Cd36 for which 52° C. annealing temperature was used. […]

[5] = system: hepatic gene expression (Pcsk9, Abca1, F2, SerpinC1); test: Hepatic gene expression by qRT-PCR; format: in vivo, rat
Description: as §1, §2

[6] = system: white adipose tissue gene expression (Ap2, Adipoq, Adipsin, Cd36, Pgc1a, Pparg); test: White adipose tissue (epididymal fat) gene expression by qRT-PCR; format: in vivo, rat; conditions: PAN rats
Description: as §1
Total RNA was extracted from isolated WAT epididymal fat and liver tissue samples using the RNeasy kit (Qiagen, Germantown, MD), following the manufacturer's instructions. Tissue samples in lysis buffer were placed in lock tubes with stainless-steel disruption beads and lysed at 30.0 Hz for 4 minutes using the Qiagen TissueLyser (Germantown, MD), followed by RNA isolation from the resulting lysate. Total RNA was isolated from glomeruli tissue samples using the mirVana™ Isolation Kit (Invitrogen, Carlsbad, CA), according to the manufacturer's instructions. Yield and purity were calculated for all isolated RNA samples by measuring the absorbance at 260, 280, and 230 nm and the ratios (both) with a spectrophotometer. 500 ng-1 μg of RNA was subjected to DNase (Invitrogen, Carlsbad, CA) digestion at room temperature for 15 minutes, which was then inactivated with 25 mM EDTA at 65° C. for 10 min. RNA was reverse transcribed using the iScript cDNA Synthesis Kit (Bio-Rad, Hercules, CA) according to the manufacturer's instructions. cDNA was used for quantitative reverse transcription-polymerase chain reaction (qRT-PCR) using gene specific and house-keeping primers. SYBR green (Bio-Rad, Hercules, Calif.) qRT-PCR was performed on the Applied Biosystems 7500 Real-Time PCR System. The PCR conditions were 95° C. for 10 minutes, 40× (95° C. for 15 seconds, 60° C. for 1 minute), followed by a melt curve to ensure specific products. The annealing temperature was at 60° C. for all genes except Pgc1a, Pparg, and Cd36 for which 52° C. annealing temperature was used. The melt curve conditions were 95° C. for 15 seconds, 60° C. for 1 minute, 30 seconds incremental increase to 95° C. and 60° C. for 15 seconds. The ΔΔCt method was used to analyze the results, including normalization to housekeeping genes (Rpl6 44 for glomeruli, Ppia 45, 46 for fat and liver). Pfaffl, M W, Nucleic acids research, 29: e45, 2001. Due to melt curve variation for Trpc6, amplified samples were also resolved on a 2% agarose gel, and densitometry was performed using ImageJ (National Institutes of Health, Bethesda, MD) software. Each gene was tested in triplicates for each tissue on at least three different rats per group.

P-PPARγ (Ser273) = target: T1, P-PPARγ (Ser273) (Rattus norvegicus, UniProt O88275); test: Western blot of glomerular P-PPARγ (Ser273) / total PPARγ; format: in vivo; conditions: PAN-nephrotic rats
T1 construct: To isolate protein from the glomeruli, liver, and fat tissues, the samples were lysed; from tissue; host or cells: glomeruli isolated from kidneys of male Wistar rats
T1 sequence (O88275 1-505): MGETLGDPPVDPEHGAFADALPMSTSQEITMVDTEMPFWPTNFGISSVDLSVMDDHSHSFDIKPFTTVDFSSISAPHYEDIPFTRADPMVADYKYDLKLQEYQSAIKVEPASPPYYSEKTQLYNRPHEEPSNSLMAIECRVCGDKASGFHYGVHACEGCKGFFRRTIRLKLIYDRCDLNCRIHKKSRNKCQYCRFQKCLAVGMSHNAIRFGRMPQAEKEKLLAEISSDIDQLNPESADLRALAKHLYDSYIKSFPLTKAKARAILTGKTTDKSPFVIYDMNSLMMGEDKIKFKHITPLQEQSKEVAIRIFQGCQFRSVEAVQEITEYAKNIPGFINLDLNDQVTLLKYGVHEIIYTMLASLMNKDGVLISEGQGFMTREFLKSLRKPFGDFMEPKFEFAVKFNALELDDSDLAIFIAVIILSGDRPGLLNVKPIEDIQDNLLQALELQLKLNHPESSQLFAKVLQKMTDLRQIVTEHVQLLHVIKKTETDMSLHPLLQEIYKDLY
Description: Male Wistar rats were intravenously (IV) injected with puromycin aminonucleoside (PAN) (Sigma-Aldrich, St. Louis, Mo.) (50 mg/kg) on Day 0, which induced proteinuria, while control rats were given IV injections of saline. The rats were treated by oral gavage with Pioglitazone (Alfa Aesar, Tewksbury, Mass.) (10 mg/kg), GQ-16 (40 mg/kg), or a sham vehicle daily. […] Spot urine and serum were collected, and body weights were recorded throughout the study. […] Kidneys were harvested, and the glomeruli were isolated using the sequential sieving method.
To isolate protein from the glomeruli, liver, and fat tissues, the samples were lysed in a lock tube with RIPA buffer (1M Tris HCl, 0.5M EDTA, 5M NaCl, 10% SDS) containing protease inhibitor cocktail (Thermo Scientific, Waltham, MA) and phosphatase inhibitor cocktail (Alfa Aesar, Tewksbury, MA) and a stainless-steel disruption bead using a Qiagen TissueLyser (Germantown, Md.). Following lysis/homogenization at 30.0 Hz for 4 minutes (liver and fat) or 1 minute (glomeruli), samples were centrifuged for 10 minutes at 4° C. at 12,000 rpm. The supernatant was collected, and the proteins were resolved by SDS-PAGE and transferred to an Immobilon-P polyvinylidene difluoride (PVDF) Transfer Membrane (Millipore Sigma, St. Louis, MO). […] Protein bands were detected by chemiluminescence using the Chemidoc MP Imaging System (Bio-Rad, Hercules, CA). […]

[7] = Body weight in PAN-nephrotic rats; format: in vivo, rat
Description: as §1

PPARγ = target: T2, PPARγ (Homo sapiens, UniProt P37231); conditions: cited from earlier work
T2 sequence (P37231 1-505): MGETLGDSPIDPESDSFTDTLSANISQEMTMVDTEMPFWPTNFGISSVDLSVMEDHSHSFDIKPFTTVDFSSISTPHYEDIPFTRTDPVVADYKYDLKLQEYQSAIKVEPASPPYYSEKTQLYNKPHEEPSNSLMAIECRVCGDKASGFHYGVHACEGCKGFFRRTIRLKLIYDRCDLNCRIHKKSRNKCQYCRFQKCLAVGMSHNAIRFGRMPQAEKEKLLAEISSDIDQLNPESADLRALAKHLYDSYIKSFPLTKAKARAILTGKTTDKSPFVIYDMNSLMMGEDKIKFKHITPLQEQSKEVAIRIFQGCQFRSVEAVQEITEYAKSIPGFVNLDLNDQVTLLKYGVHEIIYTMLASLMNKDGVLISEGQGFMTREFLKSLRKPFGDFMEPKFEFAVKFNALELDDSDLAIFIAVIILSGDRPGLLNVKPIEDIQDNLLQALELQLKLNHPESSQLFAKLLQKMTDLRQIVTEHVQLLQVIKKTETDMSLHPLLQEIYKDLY

[8] = target: T3, PPARγ phosphorylation at Ser273 (Homo sapiens, UniProt P37231); conditions: in vitro assay; cited from earlier work
T3 sequence (P37231 1-505): T2 sequence (P37231 1-505)

diabetic mice = conditions: in the absence of weight gain and edema; cited from earlier work
thrombin generation [9] = conditions: previous study; cited from earlier work
[10] = in vivo; cited from earlier work

phosphorylation status of PPARγ at Ser273 (glomeruli) (P-PPARγ (Ser273)): unaltered
Structure (SMILES): COc1ccc(Br)cc1/C=C1\SC(=O)N(Cc2ccc(C)cc2)C1=O [GQ-16, 5-(5-bromo-2-methoxy-benzylidine)-3-(4-methyl-benzyl)-thiazolidine-2,4-dione]
Urinary protein/creatinine ratio (UPCr) [1]: 8.01 ± 3.54 mg/mg
mean reduction in PAN-induced proteinuria [1]: 84% and 81%
mean reduction of PAN-induced hypercholesterolemia [2]: 86%
serum total cholesterol [2]: 93.14 ± 13.36 mg/dL
serum albumin [2]: 2.64 ± 0.15 g/dL
Lag Phase (thrombin generation [3]): 9.250 ± 1.532 min
Peak Thrombin (thrombin generation [3]): 134.0 ± 35.54 nM
Velocity Index (thrombin generation [3]): 19.91 ± 6.643 nM/min
ETP (endogenous thrombin potential) (thrombin generation [3]): 2544 ± 489.0 nM·min
glomerular Nphs1 expression ([4]; vs PAN): significantly restored
glomerular Nrf2 expression ([4]; vs PAN): marked restoration
glomerular Pparg expression ([4]; not significant (p=0.06)): somewhat increased
glomerular Trpc6 expression ([4]; trend only): reduction
hepatic Pcsk9 expression ([5]; PAN rats (PAN ~30 fold up)): restored to control levels
hepatic F2 expression ([5]; PAN rats, tendency, p=0.07): reduced
hepatic SerpinC1 expression ([5]; PAN rats, tendency, p=0.07): reduced
hepatic Abca1 expression ([5]; PAN rats, trend, p=0.057): ~23 fold
WAT Adipoq expression [6]: induced more robustly
WAT Adipsin (Cfd) expression [6]: induced more robustly
WAT Ap2 (Fabp4) expression [6]: ~2.2 fold
WAT Cd36 expression [6]: no significant differences
WAT Pgc1a expression [6]: trend in increase
WAT Pparg expression [6]: induced
WAT Δ exon 5 splice variant of Pparg, normalized to total Pparg [6]: further reduced
body weight (weight reduction of nephrotic rats) [7]: maintained
Ki (PPARγ): 160 nM
receptor phosphorylation at Ser273 [8]: block
insulin sensitivity (diabetic mice): improve

Structure (SMILES): CCc1ccc(CCOc2ccc(CC3SC(=O)NC3=O)cc2)nc1 (stereo not shown) [Pio, pioglitazone, reference compound]
Urinary protein/creatinine ratio (UPCr) [1]: 13.17 ± 5.51 mg/mg
mean reduction in PAN-induced proteinuria [1]: 64%
mean reduction of PAN-induced hypercholesterolemia [2]: 80%
serum total cholesterol [2]: 97.86 ± 12.37 mg/dL
serum albumin [2]: 2.34 ± 0.14 g/dL
Lag Phase (thrombin generation [3]): 7.714 ± 0.6974 min
Peak Thrombin (thrombin generation [3]): 180.8 ± 29.50 nM
Velocity Index (thrombin generation [3]): 34.67 ± 8.448 nM/min
ETP (endogenous thrombin potential) (thrombin generation [3]): 3509 ± 427.8 nM·min
WAT Ap2 (Fabp4) expression [6]: ~3.4 fold
body weight (weight reduction of nephrotic rats) [7]: did not show any significant difference from control rats
ETP in healthy control rats (thrombin generation [9]): significantly increased
half-life [10]: 8 to 9 h
time of peak (systemic) [10]: 1.5 to 2 h
